In US6391917B1, “Dialkyl ureas as calcitonin mimetics” (ZymoGenetics, Inc., priority 1998, dated 2002):

Target: T1, Human calcitonin receptor (Homo sapiens, UniProt P30988)
T1 construct: expressed in transfected cells; host or cells: BHK-570 (Hollex-1)
T1 sequence (P30988 25-474): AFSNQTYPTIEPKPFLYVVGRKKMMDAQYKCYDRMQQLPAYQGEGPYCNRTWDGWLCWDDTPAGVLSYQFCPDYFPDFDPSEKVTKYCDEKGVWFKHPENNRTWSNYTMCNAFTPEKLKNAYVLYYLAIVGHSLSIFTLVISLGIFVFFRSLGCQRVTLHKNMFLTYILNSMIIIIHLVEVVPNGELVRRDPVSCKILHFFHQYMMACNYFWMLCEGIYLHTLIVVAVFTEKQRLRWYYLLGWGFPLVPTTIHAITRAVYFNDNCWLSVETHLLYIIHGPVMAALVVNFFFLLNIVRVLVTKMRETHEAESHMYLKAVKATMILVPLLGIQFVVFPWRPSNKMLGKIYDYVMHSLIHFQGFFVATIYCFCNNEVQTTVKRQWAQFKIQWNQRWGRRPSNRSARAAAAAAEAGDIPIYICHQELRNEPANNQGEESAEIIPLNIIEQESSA
Experiment: CRE-luciferase assay for calcitonin mimetics (Hollex-1)
Assay type: cell-based
Method: CRE-Luciferase Assay Method for Calcitonin Mimetics
Human calcitonin receptor-positive and receptor-negative BHK-570 (Baby Hamster Kidney) cell lines were maintained by serial passage in growth medium (DMEM supplemented with 10% heat-inactivated fetal calf serum (HI-FCS), 2 mM L-glutamine, 1 mM sodium pyruvate, 250 nM MTX, and 1 mg/mL G418). On the day prior to assay, cells were trypsinized, adjusted to 2.5×10^5 cells/ml in growth medium, plated in opaque white Dynatech Microlite microtiter tissue culture plates at 50 μL/well, and grown overnight to confluence (37° C., 5% CO2 atmosphere).
Test substances were prepared in DMSO or 10% DMF at 100 times the final desired assay concentration. […] Controls were included on each plate: untreated wells (basal), […], and 100 nM human calcitonin. DMSO or DMF was included in control wells at a concentration equal to that in test samples (not to exceed a final assay concentration of 2% DMSO or 0.5% DMF, with a preferred maximum of 1% DMSO or 0.1% DMF).
Plates were incubated for 3 to 8 hours (4 hours preferred) at 37° C. in an atmosphere of 5% CO2. Following induction, luciferase activity was measured using a Promega luciferase assay kit (E1500) according to the assay kit protocol (Promega Corp., Madison, Wis.). Briefly, assay medium was removed and cells were washed once with phosphate buffered saline (PBS). After the wash, 25 μl of lysis buffer was added to each well, and the plates were incubated for 15 minutes at room temperature. Fifty microliters of Luciferase Assay Substrate (Promega, Corp.) was added to each well and the plates were transferred to a Labsystems Lumiscan microtiter luminometer (Labsystems Inc., Morton Grove, Ill.). The amount of luminescence (relative light units, RLU) was determined following a 0.1 second/well integration of signal. Basal (uninduced) luciferase signal was subtracted from all measurements, and the luciferase signal induced by test samples was expressed as a percentage of the signal in the calcitonin and forskolin controls. Specificity of the luciferase induction for calcitonin receptor-positive cell lines was determined by comparing the percent control values in the calcitonin receptor-positive line (Hollex-1) to those observed in the calcitonin receptor-negative cell line (KZ10-20-48/Zem 228) and the PTH receptor-positive cell line (KZ10-20-48/PTH-20) described below. Samples inducing a signal over the basal level were selected for further characterization, see Table 1 for examples.

Structure (SMILES)	Luciferase induction (% of maximum luciferase induction produced by CT, 100 nM) (crude compound 3.125 μg/ml) [%]	Luciferase induction (% of maximum luciferase induction produced by CT, 100 nM) (crude compound 6.25 μg/ml) [%]	Luciferase induction (% of maximum luciferase induction produced by CT, 100 nM) (crude compound 12.5 μg/ml) [%]	Luciferase induction (% of maximum luciferase induction produced by CT, 100 nM) (crude compound 25 μg/ml) [%]	Luciferase induction (% of maximum luciferase induction produced by CT, 100 nM) (crude compound 50 μg/ml) [%]
CCNC(=O)C(Cc1ccc(OCC)cc1)NC(=O)Nc1cc(C(C)(C)C)ccc1C(C)(C)C (stereo not drawn) [628-007]	0.76	10.61	31.97	55.34	31.73
CCNC(=O)C(Cc1cn(CC)c2ccccc12)NC(=O)Nc1cc(C(C)(C)C)ccc1C(C)(C)C (stereo not drawn) [628-008]	−1.31	2.91	20.07	50.93	50.39
C=CCNC(=O)[C@@H](Cc1ccccc1)NC(=O)Nc1cc(C(C)(C)C)ccc1C(C)(C)C [628-013]	3.51	17.98	51.62	69.62	64.26
C=CCNC(=O)C(Cc1ccc(OCC=C)cc1)NC(=O)Nc1cc(C(C)(C)C)ccc1C(C)(C)C (stereo not drawn) [628-015]	1.62	14.69	43.2	72.17	71.49
C=CCNC(=O)C(Cc1cn(CC=C)c2ccccc12)NC(=O)Nc1cc(C(C)(C)C)ccc1C(C)(C)C (stereo not drawn) [628-016]	10.72	43.89	76.44	80.63	75.76
CCNC(=O)[C@@H](Cc1ccc(Cl)cc1)NC(=O)Nc1cc(C(C)(C)C)ccc1C(C)(C)C [628-022]	2.08	3.26	17.85	41.52	46.98
CCNC(=O)[C@@H](Cc1ccc(F)cc1)NC(=O)Nc1cc(C(C)(C)C)ccc1C(C)(C)C [628-023]	−0.46	7.84	32.04	46.84	41.79
CCNC(=O)[C@@H](Cc1ccc(I)cc1)NC(=O)Nc1cc(C(C)(C)C)ccc1C(C)(C)C [628-024]	−1.24	1.39	11.8	22.64	30.25
CCNC(=O)[C@@H](Cc1ccc2ccccc2c1)NC(=O)Nc1cc(C(C)(C)C)ccc1C(C)(C)C [628-025]	0.42	0.65	2.33	7.96	22.61
C=CCNC(=O)[C@@H](Cc1ccc(Cl)cc1)NC(=O)Nc1cc(C(C)(C)C)ccc1C(C)(C)C [628-032]		25.42	27.28	31.34	33.94
C=CCNC(=O)[C@@H](Cc1ccc(I)cc1)NC(=O)Nc1cc(C(C)(C)C)ccc1C(C)(C)C [628-034]		6.89	25.02	33.86	38.68
C=CCNC(=O)[C@H](NC(=O)Nc1cc(C(C)(C)C)ccc1C(C)(C)C)c1ccccc1 [628-036]		4.12	6.43	8.0	10.38
CC(C)(C)c1ccc(C(C)(C)C)c(NC(=O)N[C@H](Cc2ccc(Cl)cc2)C(=O)NCc2ccccc2)c1 [628-042]	19.16	49.17	59.74	68.69	60.41
CC(C)(C)c1ccc(C(C)(C)C)c(NC(=O)N[C@H](Cc2ccc(F)cc2)C(=O)NCc2ccccc2)c1 [628-043]	6.48	34.53	42.06	46.24	47.95
CC(C)(C)c1ccc(C(C)(C)C)c(NC(=O)N[C@H](Cc2ccc(I)cc2)C(=O)NCc2ccccc2)c1 [628-044]	10.65	24.08	29.35	26.23	30.14
CC(C)(C)c1ccc(C(C)(C)C)c(NC(=O)N[C@H](Cc2ccc3ccccc3c2)C(=O)NCc2ccccc2)c1 [628-045]	20.19	38.73	42.49	44.51	40.62
CC(C)(C)c1ccc(C(C)(C)C)c(NC(=O)N[C@H](Cc2ccc(Cl)cc2)C(=O)NCc2ccc3ccccc3c2)c1 [628-052]	9.57	23.59	36.63	40.21	38.27
CC(C)(C)c1ccc(C(C)(C)C)c(NC(=O)N[C@H](Cc2ccc(F)cc2)C(=O)NCc2ccc3ccccc3c2)c1 [628-053]	3.29	11.89	32.31	41.8	40.14
